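Values below derive from 48-hour exposures of cells grown in 96-well plates, with endpoints linearly interpolated between the two concentrations bracketing the appropriate inhibition level. GI50 marks 50% less growth.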 Activity calls are given as the source filed them. No stated cut-off is given here; in the data, active = GI50 up to about 1.1 µM and inactive = higher.
What was measured:
Assay in all cases: growth of human tumour cells (NCI), 48 h
TK-10 = tested on: TK-10
HOP-92 = tested on: HOP-92
HCC 2998 = tested on: HCC 2998
OVCAR-5 = tested on: OVCAR-5
A549 = tested on: A549
OVCAR-4 = tested on: OVCAR-4
SR = tested on: SR
SK-MEL-5 = tested on: SK-MEL-5
ACHN = tested on: ACHN
CCRF-CEM = tested on: CCRF-CEM
SF-295 = tested on: SF-295
UO-31 = tested on: UO-31
OVCAR-8 = tested on: OVCAR-8
NCI-H522 = tested on: NCI-H522
HOP-62 = tested on: HOP-62
SNB-75 = tested on: SNB-75
MCF7 = tested on: MCF7
NCI/ADR-RES = tested on: NCI/ADR-RES

Measured: GI50

COc1cccc(/C=C(\NC(C)=O)c2nc3cc(Cl)ccc3[nH]2)c1
inactive: TK-10 > 100 µM | HOP-92 59.3 µM | HCC 2998 > 100 µM | OVCAR-5 > 100 µM | A549 > 100 µM | OVCAR-4 > 100 µM | SR > 100 µM | SK-MEL-5 > 100 µM | ACHN > 100 µM | CCRF-CEM > 100 µM | SF-295 > 100 µM | UO-31 > 100 µM | OVCAR-8 > 100 µM | NCI-H522 > 100 µM

O=c1c2c(c1=O)C1(SCCCS1)c1cc(Cl)ccc1O2
inactive: TK-10 > 100 µM | HOP-92 > 100 µM | HCC 2998 > 100 µM | HOP-62 > 100 µM | OVCAR-5 > 100 µM | A549 > 100 µM | SNB-75 > 100 µM | OVCAR-4 > 100 µM | SK-MEL-5 > 100 µM | ACHN > 100 µM | CCRF-CEM > 100 µM | SF-295 > 100 µM | UO-31 > 100 µM | MCF7 > 100 µM | NCI/ADR-RES > 100 µM | OVCAR-8 > 100 µM | NCI-H522 > 100 µM

C[n+]1c(-c2ccc(/C=N\NC(=O)c3ccc(C(=O)N/N=C/c4ccc(-c5cn6ccsc6[n+]5C)cc4)cc3)cc2)cn2ccsc21
inactive: TK-10 19.9 µM | HOP-92 14.8 µM | HCC 2998 34 µM | HOP-62 17.9 µM | OVCAR-5 17.3 µM | A549 24.5 µM | SNB-75 23.3 µM | OVCAR-4 28.8 µM | SR 17.3 µM | SK-MEL-5 16.5 µM | ACHN 17.9 µM | CCRF-CEM 25.4 µM | UO-31 15.2 µM | MCF7 20.2 µM | NCI/ADR-RES 17.7 µM | OVCAR-8 14.8 µM | NCI-H522 31.1 µM

O=C1NC(=O)C(C(=O)C(=O)Nc2ccc(Cl)cc2Cl)C(=O)N1
inactive: TK-10 > 100 µM | HOP-92 36.8 µM | HCC 2998 > 100 µM | HOP-62 > 100 µM | OVCAR-5 > 100 µM | A549 > 100 µM | OVCAR-4 > 100 µM | SK-MEL-5 > 100 µM | ACHN > 100 µM | CCRF-CEM > 100 µM | SF-295 > 100 µM | UO-31 > 100 µM | OVCAR-8 > 100 µM

Cc1c(S(=O)(=O)c2ccccc2)c(N)n(Cc2ccccc2)c1C
inactive: TK-10 > 100 µM | HOP-92 > 100 µM | HCC 2998 > 100 µM | OVCAR-5 > 100 µM | A549 > 100 µM | SNB-75 > 100 µM | OVCAR-4 85.7 µM | SR > 100 µM | SK-MEL-5 > 100 µM | ACHN > 100 µM | CCRF-CEM > 100 µM | SF-295 > 100 µM | UO-31 > 100 µM | MCF7 > 100 µM | NCI/ADR-RES > 100 µM | OVCAR-8 > 100 µM | NCI-H522 > 100 µM

CC1(C)C=N[N+]2(C)C3C=CC(CC3)C12 (centres undefined)
inactive: TK-10 > 100 µM | HOP-92 > 100 µM | HCC 2998 > 100 µM | HOP-62 > 100 µM | OVCAR-5 > 100 µM | A549 > 100 µM | SNB-75 > 100 µM | SR > 100 µM | SK-MEL-5 > 100 µM | ACHN > 100 µM | CCRF-CEM > 100 µM | SF-295 > 100 µM | UO-31 > 100 µM | OVCAR-8 > 100 µM | NCI-H522 > 100 µM

C=CC1=C(C)c2cc3[nH]c(cc4nc(cc5[nH]c(cc1n2)c(C)c5CCC(=O)N(CC)CC)C(CCC(=O)N(CC)CC)=C4C)c(C)c3C=C
inactive: TK-10 > 100 µM | HOP-92 6.04 µM | HCC 2998 > 100 µM | HOP-62 > 100 µM | OVCAR-5 74.5 µM | A549 > 100 µM | SNB-75 29.4 µM | OVCAR-4 > 100 µM | SR > 100 µM | SK-MEL-5 > 100 µM | ACHN > 100 µM | CCRF-CEM > 100 µM | SF-295 61.2 µM | UO-31 > 100 µM | OVCAR-8 > 100 µM | NCI-H522 > 100 µM
